The text below walks through data of patent US12023384B2, “Immunogenic peptides comprising an MHC class II T cell epitope and a redox motif” (IMCYSE SA, priority 2014, dated 2024).

No end group written: not given here.

Assay [1] in a line: Evaluation of reductase activity on a synthetic peptide (fluorescence de-quenching). It is filed as biochemical. To be noted: peptide 25 μM, 2.5 μM (FITC-Gly-Cys-Asp)ox, PBS, 40 minutes, 25° C., fluorescence 530 nm. The protocol:
The reductase activity of the peptides is determined using a fluorescent described in Tomazzolli et al. (2006) Anal. Biochem. 350, 105-112. Two peptides with a FITC label become self-quenching when they covalently attached to each other via a disulfide bridge. Upon reduction by a peptide in accordance with the present invention, the reduced individual peptides become fluorescent again.
Control experiments were performed with a peptide with a “normal” reducing peptide, i.e. a peptide with a redox motif but without additional histidine and with a peptide comprising no redox motif.
A FITC -NH-Gly-Cys-Asp-COOH peptide was synthesized (Eurogentec, Belgium) and self-quenched by solubilization in DMSO ((FITC-Gly-Cys-Asp)ox). The reduction of 2.5 μM (FITC-Gly-Cys-Asp)ox was followed on a 96 well plate during 40 minutes (25° C.) after incubation in PBS with peptide (25 μM) as listed in the accompanying table, or with 2 mM Dithiothreitol (DTT). Reduction was measured as a function of increase in fluorescence read at 530 nm after excitation at 494 nm, using a CytoFluor® multiplate reader (Applied Biosystems). Results are shown in the table of example 10 under the heading “Reductase activity”.

In a further assay the target is Human recombinant CD4 (Homo sapiens, UniProt P01730). The experiment in a line: Polymerization of human recombinant CD4 (non-reducing PAGE). The settings on record: 50 μM peptide, 300 ng recCD4, Hepes buffer, 15 minutes at 68° C. It is filed as biochemical. More on the design: key: The Table indicates whether or not a polymerization had occurred (+). The protocol: Fifty μM of DTT is used as a positive control under the same conditions. LDS sample buffer (7.5 μl; non-reducing) is then added to 15 μl of the peptide/CD4 mixture. The mixture is then submitted to non-reducing PAGE. After Coomassie Blue staining, protein bands are analyzed for the presence of monomeric, dimeric or multimeric recCD4, as identified by the decreased migratory capacities into the gel. The Table indicates whether or not a polymerization had occurred (+).

The subject of assay [2] is polyclonal CD4+CD25− cells obtained from animals in which EAE is effective. The assay is described as follows: Bystander suppression assay with T cell line from immunised mice. It is filed as cell-based, C57BL/6 mice. To be noted: CD4+ T cell line from mice immunised 3 x 20 μg sc on aluminium hydroxide, after four re-stimulations. The protocol:
Groups of C57BL/6 mice are immunised subcutaneously (20 μg) with the peptide of example 1 which contains the modified sequence motif [SEQ ID NO: 1] or control peptide [SEQ ID NO: 2, 4 or 7] adsorbed onto aluminium hydroxide. Three injections are performed at 2-week intervals. Ten days after the last immunisation, mice are sacrificed and CD4+ T cells (2×10^6 cells) are prepared from the spleen using magnetic beads. CD4+ T cells are then stimulated in vitro by the MOG T cell epitope (20 μg/ml) presented by adherent spleen cells (2×10^6 cells).
After four re-stimulations, a T cell line is tested in a bystander suppression assay with, as target cells, polyclonal CD4^+CD25^− cells obtained from animals in which EAE (Experimental autoimmune encephalomyelitis) is effective.

Regarding “AAACHGCVRSLQPLALEGSLQKRG (proinsulin) [SEQ ID NO: 114, reference compound]”, the “Reductase activity (%)” value in assay [1] was determined as 22%. Also, the CD4 polymerisation entry with Human recombinant CD4 is given as “low”.

Regarding “AAACHPCVRSLQPLALEGSLQKRG (proinsulin) [SEQ ID NO: 112, reference compound]”, the “Reductase activity (%)” value in assay [1] is listed as 75%. The CD4 polymerisation result with Human recombinant CD4 was “+”.

Regarding “AAACPYCVRSLQPLALEGSLQKRG (proinsulin) [SEQ ID NO: 111, reference compound]”, the “Reductase activity (%)” value in assay [1] stood at 6%. Besides, the CD4 polymerisation entry with Human recombinant CD4 is “+”.

For the substance “AAHCHPCVRSLQPLALEGSLQKRG (proinsulin) [SEQ ID NO: 113]”, in assay [1], the “Reductase activity (%)” value stood at 64%. The CD4 polymerisation entry with Human recombinant CD4 was “+”.

Take “AHACPYCVRSLQPLALEGSLQKRG (proinsulin) [SEQ ID NO: 110]”: the “Reductase activity (%)” value in assay [1] stood at 13%. The CD4 polymerisation entry with Human recombinant CD4 is “+”.

“CPYCSRVVHLYRNGKD (CPYCSRVVHLYRNGKD-NH2; cysteine pairing not given here) [SEQ ID NO: 7, reference compound]”: the “capacity to induce death in target cells” value in assay [2] is recorded as “have the capacity to induce death in target cells”.

As for “H CPYCVRSLQPLALEGSLQKRG (HCPYCVRSLQPLALEGSLQKRG; proinsulin) [SEQ ID NO: 108]”, the “Reductase activity (%)” value in assay [1] is on record as 68%. The CD4 polymerisation entry in the assay with Human recombinant CD4 is recorded as “+”.

As for “HAACPYCVRSLQPLALEGSLQKRG (proinsulin) [SEQ ID NO: 109]”, in assay [1], the “Reductase activity (%)” value was 0%. Moreover, in the assay with Human recombinant CD4, the CD4 polymerisation entry is recorded as “+”.

Regarding HCPYCSRVVHLYRNGKD [SEQ ID NO: 1], the “capacity to induce death in target cells” value in assay [2] is listed as “have the capacity to induce death in target cells”.
